Results from paper PMC4433323, “Structural and Kinetic Characterization of Thymidine Kinase from Leishmania major” (PLoS Neglected Tropical Diseases, 2015).
Values joined by “and” are separate entries in the source; they are usually repeats but may differ in a detail not shown here. Equal entries are not always repeated. Where two headings read alike, the source gives them in different places. Marks after values point to notes of the source that are not given here.

What was measured:
LmTK [1] = target: T1, LmTK (Leishmania major, UniProt Q4QC75); assay: Inhibition assay of LmTK activity; format: biochemical; settings: for IC50: 22.3 nM LmTK, pH 7.4
Description: (§1) TK activity was measured spectrophotometrically using an enzyme coupled assay in buffer containing 50 mM Tris-HCl pH 7.4, 5 mM MgCl2, 50 mM KCl, 1 mM DTT, 0.5 mM ATP, 0.5 mM phosphoenolpyruvate (PEP), 0.2 mM NADH, 0.2 mM thymidine (dThd), 2 U pyruvate kinase (PK), 4 U lactate dehydrogenase (LDH) and variable amounts of enzyme. The reaction rate (AU/min) was registered as a decrease in absorbance at 340nm (NADH extinction coefficient) at 25°C at pH 7.4 using a multicell Hewlett-Packard 8452 diode array UV-VIS spectrophotometer. Diluted stocks of frozen full-length LmTK were freshly prepared in assay buffer before the measurements.
The method consists in determining experimental values for the initial velocities, v, as described above, at increasing inhibitor concentrations, added before initiating the reaction. LmTK and dThd concentrations were 22.3 nM and 25 μM respectively. The concentration of inhibitor that inhibits the activity by 50% (IC50) was calculated.

LmTK [2] = target: T1, LmTK; assay: TK activity, enzyme coupled spectrophotometric assay (substrate kinetics); format: biochemical; settings: for Activity measurements at 10 mM substrate concentration (Vmax) / rate of phosphorylation by LmTK, fold lower than the Vmax value exhibited by TbTK: 10 mM substrate; for kcat / Vmax / Km: recombinant full-length LmTK; for Vmax / Km: 25°C, pH 7.4
Description: as §1, with “measurements. […]” for “measurements.”

hTK1 [3] = test system: hTK1; parameters: method as in Munch-Peterson et al. [43]; settings: 37°C; ref Munch-Peterson et al. [43]; cited from earlier work
LmTK [4] = target: T1, LmTK; assay: Inhibition assay of LmTK activity; format: biochemical
TK from rat liver = test system: TK from rat liver; parameters: method as in PMID 4539354; settings: similar conditions (equimolar dTTP and dThd); cited from earlier work
hTK1 [5] = target: hTK1; parameters: method as in PMID 3457791; settings: cited from earlier work
LmTK [6] = target: T1, LmTK; assay: TK activity, enzyme coupled spectrophotometric assay (substrate kinetics); format: biochemical; settings: saturating dThd (25 μM)
[7] = test system: Leishmania intracellular amastigote; parameters: method as in PMID 20922414; settings: cited from earlier work
[8] = target: the molecule itself; assay: AUC; sedimentation velocity, unliganded C-terminally His-tagged LmTK (dTTP dialysed away), 0.15 and 0.45 mg/mL, SEC buffer (10 mM Tris pH 8.0, 200 mM NaCl, 1 mM DTT), 42 000 rpm, 20°C; c(s) analysis with SEDFIT
[9] = target: the molecule itself; assay: crystal structure; LmTK-dThd (with phosphate), 1.4 M Na/K PO4 pH 5.4, 1 mM dThd, 1 mM AppNHp, 3 mM MgCl2; space group P6(5)22, 2 protomers per asymmetric unit, 2.74 Å
[10] = substrate: Cc1cn([C@H]2C[C@H](O)[C@@H](CO)O2)c(=O)[nH]c1=O; assay: TK activity, enzyme coupled spectrophotometric assay (substrate kinetics); format: biochemical, Leishmania major; settings: other: recombinant full-length LmTK, 25°C, pH 7.4
Description: as §1, with “measurements. […]” for “measurements.”

Nc1ncnc2c1ncn2[C@@H]1O[C@H](CO)[C@@H](O)[C@H]1O [Ado, adenosine]
inhibition of LmTK (LmTK [1]; tested at 5 mM): no inhibition
Activity measurements at 10 mM substrate concentration (Vmax) (LmTK [2]): 0.00 ^a μmol∙min^-1∙mg^-1

Nc1ccn([C@@H]2O[C@H](CO)[C@@H](O)[C@H]2O)c(=O)n1 [Cyd]
Activity measurements at 10 mM substrate concentration (Vmax) (LmTK [2]): 0.00 ^a μmol∙min^-1∙mg^-1

Nc1nc2c(ncn2[C@H]2C[C@H](O)[C@@H](CO)O2)c(=O)[nH]1 [dGuo]
Activity measurements at 10 mM substrate concentration (Vmax) (LmTK [2]): 0.04 ^a μmol∙min^-1∙mg^-1
rate of phosphorylation by LmTK, fold lower than the Vmax value exhibited by TbTK (LmTK [2]): 10 fold

O=c1ccn([C@@H]2O[C@H](CO)[C@@H](O)[C@H]2O)c(=O)[nH]1 [Urd]
kcat (LmTK [2]): 0.44 s⁻¹
Vmax (LmTK [2]): 0.79 ± 0.12 µmol/min/mg
Km (LmTK [2]; read-out: KM): 1460 ± 158 µM

Nc1ccn([C@H]2C[C@H](O)[C@@H](COP(=O)(O)OP(=O)(O)OP(=O)(O)O)O2)c(=O)n1 [dCTP]
IC50 (LmTK [1]; 25 μM dThd, 0.5 mM ATP): 1250 µM

O=c1ccn([C@H]2C[C@H](O)[C@@H](CO)O2)c(=O)[nH]1 [dUrd]
Km (hTK1 [3]): 9 µM
Vmax (hTK1 [3]): 11.87 µmol/min/mg
kcat (hTK1 [3]): 5.07 s⁻¹
KM fold higher than that for dThd (LmTK [2]): approximately 10 fold
kcat (LmTK [2]): 3.06 s⁻¹
Vmax (LmTK [2]): 5.45 ± 0.77 µmol/min/mg
Km (LmTK [2]; read-out: KM): 11.1 ± 2.7 µM

O=c1[nH]c(=O)n([C@H]2C[C@H](O)[C@@H](CO)O2)cc1CO [5CH2OH-2’dU]
phosphorylation by LmTK (in words) (LmTK [2]): also phosphorylated
kcat (LmTK [2]): 2.82 s⁻¹
Vmax (LmTK [2]): 5.01 ± 1.30 µmol/min/mg
Km (LmTK [2]; read-out: KM): 96.7 ± 23.1 µM

C[C@H]1O[C@@H](n2cc(F)c(=O)[nH]c2=O)[C@H](O)[C@@H]1O [5F-5’dU]
phosphorylation by LmTK (in words) (LmTK [2]): is not
Activity measurements at 10 mM substrate concentration (Vmax) (LmTK [2]): 0.00 ^a μmol∙min^-1∙mg^-1

O=c1ccn([C@H]2C[C@H](O)[C@@H](COP(=O)(O)OP(=O)(O)OP(=O)(O)O)O2)c(=O)[nH]1 [dUTP]
IC50 (LmTK [1]; 25 μM dThd, 0.5 mM ATP): 187 µM

Cc1cn([C@H]2C[C@H](O)[C@@H](COP(=O)(O)OP(=O)(O)OP(=O)(O)O)O2)c(=O)[nH]c1=O [dTTP, 2'-deoxythymidine triphosphate]
fold increase in the K0.5 value for ATP compared to absence of dTTP (LmTK [4]; 3.5 μM dTTP, ATP 50–500 μM, 25 μM dThd): 5 fold
enzyme inhibition (LmTK [4]; 0.2 mM dTTP, equimolar 0.2 mM dThd, 0.5 mM ATP): 98%
Hill coefficient (h) of inhibition (LmTK [1]; 25 μM dThd, 0.5 mM ATP): 1.6
IC50 (LmTK [1]; 25 μM dThd, 0.5 mM ATP): 3.8 ± 0.07 µM
inhibition (TK from rat liver): 87%

Cc1cn([C@H]2C[C@H](O)[C@@H](COP(=O)(O)O)O2)c(=O)[nH]c1=O [dTMP, thymidine monophosphate]
IC50 (LmTK [1]; 25 μM dThd, 0.5 mM ATP): 165 µM

Cc1cn([C@H]2C[C@H](O)[C@@H](COP(=O)(O)OP(=O)(O)OP(=O)(O)OP(=O)(O)OP(=O)(O)OC[C@H]3O[C@@H](n4cnc5c(N)ncnc54)[C@H](O)[C@@H]3O)O2)c(=O)[nH]c1=O [Ap5dT, P1-(5-adenosyl)-P5-(5-thymidyl) pentaphosphate]
IC50 (LmTK [1]; 25 μM dThd, 0.5 mM ATP): 1.1 µM
Ki (hTK1 [5]): 0.12 µM

Cc1cn([C@H]2C[C@H](O)[C@@H](CO)O2)c(=O)[nH]c1=O [dThd, 2’-deoxythymidine]
KM fold lower than that reported for TbTK (LmTK [2]; comparison with TbTK ref 35): ~ 7 fold

O=c1[nH]c(=O)n([C@H]2C[C@H](O)[C@@H](CO)O2)cc1F [5F-2’dU]
Km (hTK1 [3]): 2.2 µM
Vmax (hTK1 [3]): 8.99 µmol/min/mg
kcat (hTK1 [3]): 3.84 s⁻¹
kcat (LmTK [2]): 4.66 s⁻¹
Vmax (LmTK [2]): 8.29 ± 1.12 µmol/min/mg
Km (LmTK [2]; read-out: KM): 5.7 µM and 5.72 µM

Nc1ncnc2c1ncn2[C@@H]1O[C@H](COP(=O)(O)OP(=O)(O)OP(=O)(O)O)[C@@H](O)[C@H]1O [ATP]
Hill coefficient (positive cooperativity) (LmTK [6]): 1.6
K0.5 (LmTK [6]; fit to Hill equation): 58.6 ± 2.4 µM

Nc1ncnc2c1ncn2C1CC(O)C(CO)O1 (stereo not drawn) [dAdo]
Activity measurements at 10 mM substrate concentration (Vmax) (LmTK [2]): 0.01 ^a μmol∙min^-1∙mg^-1
rate of phosphorylation by LmTK, fold lower than the Vmax value exhibited by TbTK (LmTK [2]): 6 fold

Nc1nc2c(ncn2[C@H]2C[C@H](O)[C@@H](COP(=O)(O)OP(=O)(O)OP(=O)(O)O)O2)c(=O)[nH]1 [dGTP]
IC50 (LmTK [1]; 25 μM dThd, 0.5 mM ATP): 549 µM

Cc1cn([C@H]2C[C@H](N=[N+]=[N-])[C@@H](CO)O2)c(=O)[nH]c1=O [AZT, 3’-azido-3’-deoxythymidine]
Leishmania intracellular amastigote growth (in words) [7]: inhibit Leishmania intracellular amastigote growth
Km (hTK1 [3]): 0.6 µM
Vmax (hTK1 [3]): 4.96 µmol/min/mg
kcat (hTK1 [3]): 2.12 s⁻¹
kcat (LmTK [2]): 1.97 s⁻¹
Km (LmTK [2]): 3 µM and 3.04 µM
Vmax (LmTK [2]): 3.52 ± 0.56 µmol/min/mg

O=c1[nH]cnc2c1ncn2[C@H]1C[C@H](O)[C@@H](CO)O1 [dIno]
Activity measurements at 10 mM substrate concentration (Vmax) (LmTK [2]): 0.04 ^a μmol∙min^-1∙mg^-1
rate of phosphorylation by LmTK, fold lower than the Vmax value exhibited by TbTK (LmTK [2]): 23 fold

Nc1ccn([C@H]2C[C@H](O)[C@@H](CO)O2)c(=O)n1 [dCyd]
Activity measurements at 10 mM substrate concentration (Vmax) (LmTK [2]): 0.07 ^a μmol∙min^-1∙mg^-1

O=c1[nH]c(=O)n([C@H]2C[C@H](O)[C@@H](CO)O2)cc1Br [5Br-2’dU]
kcat (LmTK [2]): 3.47 s⁻¹
Vmax (LmTK [2]): 6.17 ± 0.19 µmol/min/mg
Km (LmTK [2]; read-out: KM): 2 µM and 2.05 µM

Nc1nc2c(ncn2[C@@H]2O[C@H](CO)[C@@H](O)[C@H]2O)c(=O)[nH]1 [Guo]
Activity measurements at 10 mM substrate concentration (Vmax) (LmTK [2]): 0.00 ^a μmol∙min^-1∙mg^-1

B1: C-terminally His-tagged truncated L. major thymidine kinase (LmTK), amino acids 2-185 (enzyme, L. major strain Friedlin, UniProt Q4QC75 2-185, looked up)
chain: FRGRIELIIGPMFAGKTTELMRRVKREIHARRSCFVIKYSKDTRYDEHNVASHDQLMLRAQAAVSQLTEVRDTWKRFDVLAIDEGQFFSDLVDFCNTAADAGKVVMVSALDGDYRRKPFGQICELVPYCEAVDKLTAVCMMCHEQPACFTRRTVNVEQQELIGGADMYIATCRECYSKQQLPSI
notes: Thymidine kinase of Leishmania major strain Friedlin (GeneDB LmjF.21.1210), C-terminally truncated version spanning amino acids 2-185; Non-cleavable C-terminal His tag; Stabilised with dTTP/MgCl2 or dThd/AppNHp/MgCl2; also called C-terminal histagged LmTK; LmTK-dTTP; source: Sf9 insect cells (baculovirus), purified (HisTrap, Superdex 200 SEC); not shown: His6, C-terminal, kept
stoichiometry N [8]: 4

B2: Truncated L. major thymidine kinase (LmTK), amino acids 2-185, as crystallised with dThd/AppNHp and with AP5dT (enzyme, L. major strain Friedlin, UniProt Q4QC75 2-185, looked up)
chain: FRGRIELIIGPMFAGKTTELMRRVKREIHARRSCFVIKYSKDTRYDEHNVASHDQLMLRAQAAVSQLTEVRDTWKRFDVLAIDEGQFFSDLVDFCNTAADAGKVVMVSALDGDYRRKPFGQICELVPYCEAVDKLTAVCMMCHEQPACFTRRTVNVEQQELIGGADMYIATCRECYSKQQLPSI
notes: Thymidine kinase of Leishmania major strain Friedlin (GeneDB LmjF.21.1210), C-terminally truncated version spanning amino acids 2-185; both preparations (each with dThd, AppNHp, MgCl2) were used for crystallization screening; also called LmTK-dThd; LmTK-dThd-AppNHp; source: Sf9 insect cells (baculovirus), purified (HisTrap, Superdex 200 SEC)
stoichiometry N [9]: 4

B3: LmTK (Leishmania major) (protein)
chain: FRGRIELIIGPMFAGKTTELMRRVKREIHARRSCFVIKYSKDTRYDEHNVASHDQLMLRAQAAVSQLTEVRDTWKRFDVLAIDEGQFFSDLVDFCNTAADAGKVVMVSALDGDYRRKPFGQICELVPYCEAVDKLTAVCMMCHEQPACFTRRTVNVEQQELIGGADMYIATCRECYSKQQLPSIEEMRTQRMAIKEVEKRYLGLSDKRATASPQTPEKPAGGWCTKAGVATLPTMVKEGAASSGASAGMKSGRGLCEMQAFTTETPKYQRVEPACTASAASSE
Km [10]: 1.10 ± 0.33 µM
Vmax [10]: 4.66 µmol/min/mg
kcat [10]: 2.62 s⁻¹
kcat/Km [10]: 2.38e+06 M⁻¹ s⁻¹
